According to patent US20260083864A1, “CONTRAST AGENTS FOR USE IN DIAGNOSTIC COMPUTED TOMOGRAPHY IMAGING” (Bayer Aktiengesellschaft, priority 2022, published 2026):

How the values were obtained:
[1] = Relaxivity measurements at 1.41 T in water; assay type: physicochemical; conditions: 37° C., normalized to Gd
Method: (§1) Relaxivity measurements at 1.41 T were performed using a MiniSpec mq60 spectrometer (Bruker Analytik, Karlsruhe, Germany) operating at a resonance frequency of 60 MHz and a temperature of 37° C. The T1 relaxation times were determined using the standard inversion recovery (IR) method with a fixed relaxation delay of at least 5×T1. The variable inversion time (TI) was calculated automatically by the standard software of the MiniSpec mq60 (8 steps). The T2 measurements were performed by using a Carr-Purcell-Meiboom-Gill (CPMG) pulse sequence, applying a relaxation delay of at least 5×T1.
Each relaxivity measurement was performed using three different Gd concentrations (3 concentrations between 0.05 and 2 mM). […] Human plasma preparation: For each experiment fresh blood was taken from a volunteer using 10 mL citrate-tubes (Sarstedt S-Monovette 02.1067.001, 10 mL, Citrate). The 10 mL citrate-tubes were carefully inverted 10 times to mix blood and anticoagulant and centrifuged for 15 min at 1811 g at RT (Eppendorf, Centrifuge 5810R).
(§2) The relaxivities n (where i=1, 2) were calculated based on the measured relaxation rates Ri in water and plasma: […]

[2] = Partition coefficient (log P butanol/buffer); assay type: physicochemical; conditions: 1-butanol / 50 mM Tris-HCl, pH 7.4, room temperature
[3] = Relaxivity measurements at 1.41 T in human plasma; assay type: physicochemical; conditions: 37° C., normalized to Gd
Method: as §1, with “The” for “Relaxivity measurements at 1.41 T were performed using a MiniSpec mq60 spectrometer (Bruker Analytik, Karlsruhe, Germany) operating at a resonance frequency of 60 MHz and a temperature of 37° C. The”
Each relaxivity measurement was performed using three different Gd concentrations (3 concentrations between 0.05 and 2 mM).
as §2

[4] = test system: freshly isolated rat hepatocytes; assay: Uptake into freshly isolated rat hepatocytes; conditions: for Uptake rat hepatocytes: 100 μmol Gd/L, 10 min, 37° C., relative to RC1 (Gd-EOB-DTPA); for Inhibition Rifampicine: rat hepatocyte uptake, test item and Rifampicine 1:1, each 100 μM
Method: After incubation the adherent hepatocytes were washed once with 37° C. Hepes carbonate transport buffer (500 μL/well). The test items and RC1 were prepared from stock solutions (180 to 500 mM concentration) in Hepes carbonate transport buffer at pH 7.4 to reach a final concentration of 100 μmol Gd/L. The specific uptake of the test item or RC1 into rat hepatocytes via OATP1B1 and OATP1B3 was challenged using a known OATP1B1/1B3 inhibitor (Rifampicine, Fa. Sigma R3501, test item and inhibitor 1:1 each 100 μM final concentration). The prepared rat hepatocyte plates were incubated with test solutions (500 μL/well) at 37° C. for 10 min using a thermoshaker (Fa. Grant Bio, PHMP). Triplicates were performed for each test item. After incubating the cells were washed once with cold PBS buffer (Fa. Gibco, Dulbeccos PBS (+)). After washing the intact hepatocytes were lysed by addition of 500 μL cold 0.01% Triton-X 100 in Millipore water for 1 h. […] As a reference standard RC1 is used in the same well plate. The hepatocyte uptake of the test compound is calculated relative to RC1 (resulting in the unit % of RC1).

OATP1B3 = target: T1, OATP1B3 (Homo sapiens, UniProt Q9NPD5); assay: Uptake into stable transfected OATP1B3 HEK 293 cells; assay type: cell-based; conditions: for Uptake into OATP1B3-HEK 293 cells: 40 min incubation, relative to RC1 (Gd-EOB-DTPA); for Inhibition Rifampicine: uptake into OATP1B3-HEK 293 cells
T1 sequence (Q9NPD5 1-702): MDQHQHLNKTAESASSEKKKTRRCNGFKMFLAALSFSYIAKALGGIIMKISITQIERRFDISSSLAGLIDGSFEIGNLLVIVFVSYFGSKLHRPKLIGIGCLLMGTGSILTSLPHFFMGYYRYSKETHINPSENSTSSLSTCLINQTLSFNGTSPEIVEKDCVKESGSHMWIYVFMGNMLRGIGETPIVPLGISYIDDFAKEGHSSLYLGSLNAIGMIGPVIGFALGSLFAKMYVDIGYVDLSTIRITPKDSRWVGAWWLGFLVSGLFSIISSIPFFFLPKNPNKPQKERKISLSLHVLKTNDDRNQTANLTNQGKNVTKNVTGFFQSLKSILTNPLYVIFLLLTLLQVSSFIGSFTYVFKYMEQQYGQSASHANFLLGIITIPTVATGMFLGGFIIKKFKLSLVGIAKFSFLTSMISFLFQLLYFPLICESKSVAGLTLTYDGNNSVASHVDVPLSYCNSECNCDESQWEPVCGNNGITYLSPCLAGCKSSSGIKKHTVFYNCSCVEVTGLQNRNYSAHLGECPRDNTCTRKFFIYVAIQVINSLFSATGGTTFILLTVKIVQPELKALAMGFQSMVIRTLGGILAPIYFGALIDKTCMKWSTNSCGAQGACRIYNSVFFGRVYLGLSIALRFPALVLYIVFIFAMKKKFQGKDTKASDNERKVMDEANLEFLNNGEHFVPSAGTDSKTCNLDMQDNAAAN
Method: (§3) Cryopreserved cells were shortly thawed in water bath and diluted in 10 mL warm culture medium (37° C.). After medium change the cells were grown for 3d in a 25 cm^2 cell culture flask. After 3 to 5d the cells were transferred into 75 cm^2 flasks. […] All test items were prepared in transport buffer at a final concentration of 100 µM from stock solutions (180 to 500 mM concentration). The OATP1B3 HEK 293 cells were incubated with test solutions (test item in transport buffer 500 μL) for 40 min on a thermoshaker without shaking (PHMP, Fa. Grant Bio). Triplicates were performed for each test item. After incubation the cells were washed with 2 mL of cold PBS (+) buffer (Dulbeccos PBS+, Fa. Gibco). […] As a reference standard Gd-EOB-DTPA (gadoxetate) is used in the same well plate.

OATP1B1 = target: T2, OATP1B1 (Homo sapiens, UniProt Q9Y6L6); assay: Uptake into stable transfected OATP1B1 HEK 293 cells; assay type: cell-based; conditions: for Uptake into OATP1B1-HEK 293 cells: 40 min incubation, relative to RC1 (Gd-EOB-DTPA); for Inhibition Rifampicine: uptake into OATP1B1-HEK 293 cells
T2 sequence (Q9Y6L6 1-691): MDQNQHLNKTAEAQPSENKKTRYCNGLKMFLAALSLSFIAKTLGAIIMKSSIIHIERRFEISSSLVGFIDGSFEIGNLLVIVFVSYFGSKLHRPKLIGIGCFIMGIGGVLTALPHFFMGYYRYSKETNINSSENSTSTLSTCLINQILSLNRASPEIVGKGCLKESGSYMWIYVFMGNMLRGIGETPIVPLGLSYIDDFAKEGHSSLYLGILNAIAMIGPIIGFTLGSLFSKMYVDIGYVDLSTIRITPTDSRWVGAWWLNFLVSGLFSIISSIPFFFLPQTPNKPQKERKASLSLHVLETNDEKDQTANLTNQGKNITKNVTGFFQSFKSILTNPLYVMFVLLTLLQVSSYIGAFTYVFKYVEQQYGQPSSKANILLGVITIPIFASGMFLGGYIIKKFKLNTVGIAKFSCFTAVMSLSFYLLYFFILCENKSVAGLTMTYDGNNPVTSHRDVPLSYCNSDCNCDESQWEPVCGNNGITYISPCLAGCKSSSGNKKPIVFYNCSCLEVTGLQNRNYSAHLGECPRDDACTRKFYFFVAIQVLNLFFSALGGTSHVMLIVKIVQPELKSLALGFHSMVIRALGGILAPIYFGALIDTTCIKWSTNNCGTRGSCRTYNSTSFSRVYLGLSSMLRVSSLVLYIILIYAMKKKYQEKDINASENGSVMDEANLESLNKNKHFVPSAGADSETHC
Method: as §3, with “M” for “µM”, “OATP1B1” for “OATP1B3”, “L)” for “μL)”

[5] = Water solubility in aqueous buffer; conditions: aqueous buffer 10 mM Tris-HCl, pH 7.4, 20° C.
Method: The solid compounds were added stepwise to the buffer solution. More substance is added once all the suspended material is dissolved until an equilibrium between undissolved and dissolved substance is reached. The suspension was mixed using a shaker (Heidolph Reax 2000) and treated 5 min in an ultrasound bath (Bandelin, Sonorex Super RK255H).

Structure (SMILES) | r1 water [1] | Log P (partition coefficient butanol/buffer) [2] | r1 human plasma [3] | Uptake rat hepatocytes [4] | Inhibition Rifampicine [4] | Uptake into OATP1B3-HEK 293 cells (OATP1B3) | Inhibition Rifampicine (OATP1B3) | Uptake into OATP1B1-HEK 293 cells (OATP1B1) | Inhibition Rifampicine (OATP1B1) | Solubility [5]
O=C([O-])CN1CCN(C(Cc2ccc(OCC(F)(F)C(F)F)cc2)C(=O)O)CCN(CC(=O)[O-])CCN([C@@H](CO)C(=O)[O-])CC1.[Gd+3] (mixture of isomers) [Example 33, gadolinium (2S)-2-[4,10-bis(carboxylatomethyl)-7-{1-carboxy-2-[4-(2,2,3,3-tetrafluoropropoxy)phenyl]ethyl}-1,4,7,10-tetraazacyclododecan-1-yl]-3-hydroxypropanoate] | 4.2 L/mmol/s | −0.55 | 11.7 L/mmol/s | 82 % of RC1 | 94 % inhibition | 71 % of RC1 | 98 % inhibition | 367 % of RC1 | 88 % inhibition | >29 mM
O=C([O-])CN1CCN(CC(=O)[O-])CCN([C@H](Cc2ccc(OCC(F)(F)F)cc2)C(=O)O)CCN(CC(=O)[O-])CC1.[Gd+3] [Example 47, gadolinium 2,2′,2″-(10-{(1R)-1-carboxy-2-[4-(2,2,2-trifluoroethoxy)phenyl]ethyl}-1,4,7,10-tetraazacyclododecane-1,4,7-triyl)triacetate] | 3.7 L/mmol/s | −0.77 | 7.8 L/mmol/s | 55 % of RC1 | 82 % inhibition | 19 % of RC1 | 90 % inhibition | 13 % of RC1 | 93 % inhibition | >229 mM
CCCOc1ccc(CCC(C(=O)O)N2CCN(CC(=O)[O-])CCN(CC(=O)[O-])CCN(CC(=O)[O-])CC2)cc1.[Gd+3] (stereo not drawn) [Example 24, gadolinium 2,2′,2″-{10-[1-carboxy-3-(4-propoxyphenyl)propyl]-1,4,7,10-tetraazacyclododecane-1,4,7-triyl}triacetate] | 4.1 L/mmol/s | −0.71 | 8.8 L/mmol/s | 40 % of RC1 | 96 % inhibition | 17 % of RC1 | 94 % inhibition | 229 % of RC1 | 87 % inhibition | >261 mM
CCCC(C(=O)[O-])N1CCN(CC(=O)[O-])CCN(C(Cc2ccc(OCC)cc2)C(=O)O)CCN(CC(=O)[O-])CC1.[Gd+3] (stereo not drawn) [Example 30, gadolinium 2-{7-[1-carboxy-2-(4-ethoxyphenyl)ethyl]-4,10-bis(carboxylatomethyl)-1,4,7,10-tetraazacyclododecan-1-yl}pentanoate] | 4.7 L/mmol/s | −0.60 | 7.6 L/mmol/s | 75 % of RC1 | 99 % inhibition | 62 % of RC1 | 98 % inhibition | 169 % of RC1 | 90 % inhibition | >35 mM
CCOCCOCCOc1ccc(CCC[C@@H](C(=O)O)N2CCN(C(CO)C(=O)[O-])CCN(C(CO)C(=O)[O-])CCN(C(CO)C(=O)[O-])CC2)cc1.[Gd+3] (mixture of isomers) [Example 21, gadolinium-2,2′,2″-{10-[(1S)-1-carboxy-4-{4-[2-(2-ethoxyethoxy)ethoxy]phenyl}butyl]-1,4,7,10-tetraazacyclododecane-1,4,7-triyl}tris(3-hydroxypropanoate)] | 5.4 L/mmol/s | −1.03 | 8.5 L/mmol/s | 81 % of RC1 | 91 % inhibition |  | 94 % inhibition |  | 75 % inhibition | >368 mM
